Earlier results on 1 compound are cited in patent publication US20260209218A1, “3-PHENYLQUINAZOLINONES AS NOVEL ANTI-CANCER THERAPY” (HELMHOLTZ ZENTRUM MÜNCHEN - DEUTSCHES FORSCHUNGSZENTRUM FÜR …, priority 2022, published 2026).

The subject of the series is ferroptosis-resistant tumor cells. As to conditions: background statement, references 16-18; cited from earlier work.

Turning to `Cc1ccc(-c2c(C#N)c(N)n3c(nc4ccccc43)c2C#N)cc1` [iFSP1, 1-amino-3-(4-methylphenyl)-pyrido[1,2-a]benzimidazole-2,4-dicarbonitrile], the sensitisation towards ferroptosis result is reported as “efficiently sensitizes ferroptosis-resistant tumor cells towards ferroptosis”.
